Assay results as given in US4112228A, “7-(D-α-Hydroxy-2-arylacetamido)-3-(2-carboxyalkyl-2,3-dihydro-s-tri azolo-[4,3-b]pyridazin-3-on-6-ylthiomethyl)-3-cephem-4-carboxylic acids and derivatives” (priority 1977, dated 1978).
Converted amounts (≈) assume the structure as drawn.

Key:
[1] = test system: Shig. flexneri; assay: MIC by Steers' agar dilution method; format: cell-based; settings: Shigella flexneri, MHA
[2] = test system: Shig. dysenteriae; assay: MIC by Steers' agar dilution method; settings: Shigella dysenteriae, MHA
[3] = test system: B. anthracis; assay: microbe, parasite or virus in culture; format: cell-based; settings: Bacillus anthracis
[4] = test system: Pr. vulgaris; assay: MIC by Steers' agar dilution method; settings: Proteus vulgaris
[5] = test system: S. typhimurium; assay: MIC by Steers' agar dilution method; settings: Salmonella enterica
[6] = test system: Serr. marcescens; assay: MIC by Steers' agar dilution method; settings: Serratia marcescens
[7] = test system: S. paratyphi; assay: MIC by Steers' agar dilution method; settings: Salmonella enterica
[8] = test system: Ps. aeruginosa; assay: MIC by Steers' agar dilution method; settings: Pseudomonas aeruginosa
[9] = test system: St. faecalis; assay: MIC by Steers' agar dilution method; settings: Enterococcus faecalis
[10] = test system: Sal. enteritidis; assay: MIC by Steers' agar dilution method; settings: Salmonella enterica
[11] = test system: S. aureus Smith; assay: Standard experimental infection in mice; format: in vivo; settings: Table 6
[12] = strain not given (1st of 2), MHA, Example 10
[13] = strain not named (2nd of 2), MHA, Example 10

## O=C(O)Cn1nc2ccc(SCC3=C(C(=O)O)N4C(=O)C(NC(=O)[C@H](O)c5ccccc5)[C@H]4SC3)nn2c1=O (stereo partly drawn) [BB-S488, 7-(D-Mandelamido)-3-(2-carboxymethyl-2,3-dihydro-s-triazolo[4,3-b]pyridazin-3-on-6-ylthiomethyl)-3-cephem-4-carboxylic Acid]
[1]; A9684, Table 1
  MIC: 12.5 µg/mL (≈ 21.8 µM)
[1]; Example 10
  MIC: 25 µg/mL (≈ 43.7 µM)
[1]; Sr-1 A9684, Table 3
  MIC: 12.5 µg/mL (≈ 21.8 µM)
[2]; Example 10
  MIC: 0.025 µg/mL (≈ 0.0437 µM)
[2]; Table 1
  MIC: 0.025 µg/mL (≈ 0.0437 µM)
[2]; Sd-1, Table 3
  MIC: 0.1 µg/mL (≈ 0.175 µM)
[3]; Ba-3 A9504, HIA, Table 4
  MIC: 0.2 µg/mL (≈ 0.349 µM)
[3]; Ba-3 A9504, MHA, Table 4
  MIC: 0.2 µg/mL (≈ 0.349 µM)
[3]; Ba-3 A9504, NA, Table 4
  MIC: 0.4 µg/mL (≈ 0.699 µM)
[3]; MHA, Example 10
  MIC: 0.2 µg/mL (≈ 0.349 µM)
[4]; A9436, MHA, Table 1
  MIC: 0.1 µg/mL (≈ 0.175 µM)
[4]; A9699, MHA, Table 1
  MIC: 0.2 µg/mL (≈ 0.349 µM)
[4]; ATCC9920, Pv-4 ATCC 9920, MHA, Table 3
  MIC: 0.1 µg/mL (≈ 0.175 µM)
[4]; Pv-1 A9436, HIA, Table 4
  MIC: 0.2 µg/mL (≈ 0.349 µM)
[4]; Pv-1 A9436, MHA, Table 3
  MIC: 0.2 µg/mL (≈ 0.349 µM)
[4]; Pv-1 A9436, MHA, Table 4
  MIC: 0.1 µg/mL (≈ 0.175 µM)
[4]; Pv-1 A9436, NA, Table 4
  MIC: 0.2 µg/mL (≈ 0.349 µM)
[4]; Pv-2 A9526, MHA, Table 3
  MIC: 6.3 µg/mL (≈ 11 µM)
[4]; Pv-3 A9699 (β-lactamase), HIA, Table 4
  MIC: 100 µg/mL (≈ 175 µM)
[4]; Pv-3 A9699 (β-lactamase), MHA, Table 4
  MIC: 0.8 µg/mL (≈ 1.4 µM)
[4]; Pv-3 A9699 (β-lactamase), NA, Table 4
  MIC: 0.8 µg/mL (≈ 1.4 µM)
[4]; Pv-3 A9699, MHA, Table 3
  MIC: 6.3 µg/mL (≈ 11 µM)
[4]; Pv-5 A9539, MHA, Table 3
  MIC: 25 µg/mL (≈ 43.7 µM)
[4]; Pv-6 A9716, MHA, Table 3
  MIC: 0.1 µg/mL (≈ 0.175 µM)
[4]; Pv-7 A21240, MHA, Table 3
  MIC: 25 µg/mL (≈ 43.7 µM)
[4]; [12]
  MIC: 0.1 µg/mL (≈ 0.175 µM)
[4]; [13]
  MIC: 0.8 µg/mL (≈ 1.4 µM)
[5]
  MIC: 0.1 µg/mL (≈ 0.175 µM)
[6]; A20019, MHA, Table 1
  MIC: 100 µg/mL (≈ 175 µM)
[6]; MHA, Example 10
  MIC: > 100 µg/mL
[6]; Sm-1 A20019 (β-lactamase), HIA, Table 4
  MIC: > 100 µg/mL
[6]; Sm-1 A20019 (β-lactamase), MHA, Table 4
  MIC: > 100 µg/mL
[6]; Sm-1 A20019 (β-lactamase), NA, Table 4
  MIC: > 100 µg/mL
[6]; Sm-1 A20019, MHA, Table 3
  MIC: 25 µg/mL (≈ 43.7 µM)
[6]; Sm-2 A20335, MHA, Table 3
  MIC: 3.1 µg/mL (≈ 5.41 µM)
[6]; Sm-3 A20336, HIA, Table 4
  MIC: > 100 µg/mL
[6]; Sm-3 A20336, MHA, Table 3
  MIC: 6.3 µg/mL (≈ 11 µM)
[6]; Sm-3 A20336, MHA, Table 4
  MIC: 0.8 µg/mL (≈ 1.4 µM)
[6]; Sm-3 A20336, NA, Table 4
  MIC: 100 µg/mL (≈ 175 µM)
[6]; Sm-4 A20442, MHA, Table 3
  MIC: 6.3 µg/mL (≈ 11 µM)
[6]; Sm-5 A20222, MHA, Table 3
  MIC: 3.1 µg/mL (≈ 5.41 µM)
[6]; Sm-6 A20460, MHA, Table 3
  MIC: 6.3 µg/mL (≈ 11 µM)
[6]; Sm-9 A20333, MHA, Table 3
  MIC: 6.3 µg/mL (≈ 11 µM)
[6]; Sm-10 A20334, MHA, Table 3
  MIC: 6.3 µg/mL (≈ 11 µM)
[6]; Sm-11 A20459, MHA, Table 3
  MIC: 6.3 µg/mL (≈ 11 µM)
[6]; Sm-12 A20461, MHA, Table 3
  MIC: 6.3 µg/mL (≈ 11 µM)
[7]
  MIC: 0.1 µg/mL (≈ 0.175 µM)
[8]; A9843, MHA, Table 1
  MIC: > 100 µg/mL
[8]; A9930, MHA, Table 1
  MIC: > 100 µg/mL
[8]; Pa-3 A9930, HIA, Table 4
  MIC: > 100 µg/mL
[8]; Pa-3 A9930, MHA, Table 4
  MIC: > 100 µg/mL
[8]; Pa-3 A9930, NA, Table 4
  MIC: 100 µg/mL (≈ 175 µM)
[8]; [12]
  MIC: > 100 µg/mL
[8]; [13]
  MIC: > 100 µg/mL
[9]; A9536, MHA, Table 1
  MIC: 100 µg/mL (≈ 175 µM)
[9]; MHA, Example 10
  MIC: > 100 µg/mL
[9]; Sf-3 S. faecalis A9536, HIA, Table 4
  MIC: > 100 µg/mL
[9]; Sf-3 S. faecalis A9536, MHA, Table 4
  MIC: > 100 µg/mL
[9]; Sf-3 S. faecalis A9536, NA, Table 4
  MIC: > 100 µg/mL
[10]; A9531, MHA, Table 1
  MIC: 0.05 µg/mL (≈ 0.0873 µM)
[10]; MHA, Example 10
  MIC: 0.025 µg/mL (≈ 0.0437 µM)
[10]; Se-1 A9531, MHA, Table 3
  MIC: 0.1 µg/mL (≈ 0.175 µM)
[11]; 0.1 mg./kg.
  No. of survivors/No. tested: 2/5
[11]; 0.4 mg./kg.
  No. of survivors/No. tested: 5/5
[11]; 1.6 mg./kg.
  No. of survivors/No. tested: 5/5
